From US7879808B2, “Lincomycin derivatives and antimicrobial agents comprising the same as active ingredient” (Meiji Seika Kaisha, Ltd., priority 2007, dated 2011)
In brackets after ≈: the same amount, converted by molar mass.

Assays:
Assay type in all cases: cell-based
S. pneumoniae MSC07571 = experiment: MIC against S. pneumoniae MSC07571 (CLSI M7-A7 agar method); conditions: Sensitivity disk agar-N+5% horse aseptic defibranated blood, about 10^4 CFU/ml; for MIC: Streptococcus pneumoniae, read-out: minimal inhibitory concentration (MIC)
Method: (§1) For representative compounds among lincomycin derivatives according to the present invention, the minimal inhibitory concentration (MIC, […]) against various pneumococci was measured according to the method described in Clinical and Laboratory Standards Institute, M7-A7, 2006. Sensitivity disk agar-N+5% horse aseptic defibranated blood was used as the medium for the measurement. The amount of bacteria inoculated was about 10^4 CFU/ml.

S. pneumoniae MSC17994 = experiment: MIC against S. pneumoniae MSC17994 (CLSI M7-A7 agar method); parameters: unit not given here; conditions: Sensitivity disk agar-N+5% horse aseptic defibranated blood, about 10^4 CFU/ml
Method: as §1

S. pneumoniae MSC07465 = experiment: MIC against S. pneumoniae MSC07465 (CLSI M7-A7 agar method); parameters: unit not given here; conditions: Sensitivity disk agar-N+5% horse aseptic defibranated blood, about 10^4 CFU/ml
Method: as §1

S. pneumoniae MSC07365 = experiment: MIC against S. pneumoniae MSC07365 (CLSI M7-A7 agar method); parameters: unit not given here; conditions: Sensitivity disk agar-N+5% horse aseptic defibranated blood, about 10^4 CFU/ml
Method: as §1

S. pneumoniae MSC10197 = experiment: MIC against S. pneumoniae MSC10197 (CLSI M7-A7 agar method); parameters: unit not given here; conditions: Sensitivity disk agar-N+5% horse aseptic defibranated blood, about 10^4 CFU/ml
Method: as §1

S. pneumoniae MSC07337 = experiment: MIC against S. pneumoniae MSC07337 (CLSI M7-A7 agar method); parameters: unit not given here; conditions: Sensitivity disk agar-N+5% horse aseptic defibranated blood, about 10^4 CFU/ml
Method: as §1

S. pneumoniae MSC07471 = experiment: MIC against S. pneumoniae MSC07471 (CLSI M7-A7 agar method); parameters: unit not given here; conditions: Sensitivity disk agar-N+5% horse aseptic defibranated blood, about 10^4 CFU/ml
Method: as §1

MIC (S. pneumoniae MSC07571) [µg/mL]	Compound	minimal inhibitory concentration (MIC) (S. pneumoniae MSC17994)	minimal inhibitory concentration (MIC) (S. pneumoniae MSC07465)	minimal inhibitory concentration (MIC) (S. pneumoniae MSC07365)	minimal inhibitory concentration (MIC) (S. pneumoniae MSC10197)	minimal inhibitory concentration (MIC) (S. pneumoniae MSC07571) [µg/mL]	minimal inhibitory concentration (MIC) (S. pneumoniae MSC07337)	minimal inhibitory concentration (MIC) (S. pneumoniae MSC07471)
60 (≈ 95.7 µM)	CCC[C@@H]1C[C@@H](C(=O)NC(C2OC(SC)C(O)C(O)C2O)[C@H](C)Sc2ccc(CCN(C)CCN(C)C)cc2)N(C)C1 (stereo partly shown) [Compound 10, 7-Deoxy-7-(4-(2-((2-(dimethylamino)ethyl)-(methyl)amino)ethyl)-phenylthio)-7-epilincomycin]	–	–	–	–	–	–	–
15 (≈ 26.3 µM)	CCC[C@@H]1C[C@@H](C(=O)NC(C2OC(SC)C(O)C(O)C2O)[C@H](C)Sc2ccc(CCN(C)C)cc2)N(C)C1 (stereo partly shown) [Compound 1, 7-Deoxy-7-(4-(2-(dimethylamino)ethyl)phenylthio)-7-epilincomycin]	–	–	–	–	–	–	–
–	CSC1OC(C(NC(=O)[C@@H]2C[C@H](CC3CC3)CCN2C)C(C)Sc2ccc(CCN(C)C3CC3)cc2)C(O)C(O)C1O (stereo partly drawn) [Compound 54, Methyl 7-(4-(2-(cyclopropyl(methyl)-amino)ethyl)phenyl-thio)-6-N-((2S,4R)-4-(cyclopropylmethyl)-1-methylpiperidine-2-carbonyl)-7-deoxy-7-epi-1-thio-α-lincosamide]	0.06	0.015	4	0.03	30 (≈ 48.2 µM)	2	2
–	CSC1OC(C(NC(=O)[C@@H]2C[C@H](CC3CC3)CCN2C)C(C)Sc2ccc(CCN(C)C)nc2)C(O)C(O)C1O (stereo partly drawn) [Compound 52, Methyl 6-N-((2S,4R)-(4-cyclopropylmethyl-1-methyl)piperidine-2-carbonyl)-7-deoxy-7-(6-(2-(dimethylamino)ethyl)-pyridin-3-ylthio)-7-epi-1-thio-α-lincosamide]	0.25	0.25	64	0.25	250 (≈ 419 µM)	32	32
